Test results published in US20230124862A1, “BISMUTH THIOL COMPOUNDS AND COMPOSITIONS AND METHODS OF TREATING MICROBIAL CO-INFECTIONS” (Microbion Corporation, priority 2020, published 2023).
Several values for one entry are separate records, joined by “and”; a condition that tells them apart may be missing. Equal entries are not always repeated. Where two headings read alike, the source gives them in different places.

Assay type: in vivo, beagle dogs
Description: Once adequately conditioned to the restraint device and face-masks, the animals are individually exposed to the test article aerosols. Animals receive a single face-mask inhalation exposure in a ramp study design to test article aerosols for up to 60 min. Animal observations during and post exposure determine the tolerance of inhaled BisEDT aerosols.
Blood Collections and Bioanalytical Analysis: Blood are collected for pharmacokinetic (PK) analysis prior to exposure, then at 4 hr (±5 min) post exposure, and again on Day 1, Day 2, Day 7 (pre- and 4 hr (±5 min)-post exposure), Day 8, Day 9, Day 10, Day 11, Day 12, Day 13, and Day 14. A total of 0.25 mL is collected at each timepoint. No PK blood is collected from the vehicle control (Group 1) animals; only animals exposed to BisEDT have blood collected for PK analysis. Collected samples are flash frozen without processing for shipment to Medpace for bioanalytical analysis. Additional blood is collected from all animals in all groups for hematology (1 mL) and clinical chemistry (1 mL) at baseline, Day 7 (pre-exposure), and again at euthanasia. Blood (2-2 mL) is collected from all animals at necropsy for coagulation analysis (d-Dimer, fibrinogen, PT, and PTT).
For clinical chemistry analyses, whole blood (1 mL) is placed into serum separator or clot tube and […] by centrifugation at a minimum of 1300 g at 2 to 8° C. for 10 (±1) min. Plasma samples are stored at −70 to −90° C. until analysis.
Clinical chemistry samples are analyzed on a Hitachi Modular Analytics Clinical Chemistry System (Roche Diagnostics, Indianapolis, Ind.).

C1C[S][Bi]([S]CC[S][Bi]2[S]CC[S]2)[S]1 [BisEDT, Bismuth-1,2-ethanedithiol]
GGT (dog 4002 Female): 3 IU/L
GLOB (dog 4002 Female): 2.1 g/dL and 2.0 g/dL
GLUC (dog 4002 Female): 106 mg/dL and 79 mg/dL
K (dog 4002 Female): 5.3 mmo/L
Na (dog 4002 Female): 153 mmo/L and 149 mmo/L
TBIL (dog 4002 Female): 0.15 mg/dL
TP (dog 4002 Female): 5.6 g/dL and 5.5 g/dL
TRIG (dog 4002 Female): 34 mg/dL and 41 mg/dL
AGR (dog 4003 Male): 1.8 and 1.6
ALB (dog 4003 Male): 3.5 g/dL and 3.3 g/dL
ALPK (dog 4003 Male): 146 IU/L and 129 IU/L
ALT (dog 4003 Male): 40 IU/L and 23 IU/L
AST (dog 4003 Male): 30 IU/L and 33 IU/L
BUN (dog 4003 Male): 16 mg/dL and 15 mg/dL
CA2 (dog 4003 Male): 11.2 mg/dL and 11.0 mg/dL
CHOL (dog 4003 Male): 152 mg/dL and 176 mg/dL
CREA (dog 4003 Male): 0.6 mg/dL and 0.7 mg/dL
Cl (dog 4003 Male): 117 mmo/L and 112 mmo/L
GGT (dog 4003 Male): 3 IU/L
GLOB (dog 4003 Male): 1.9 g/dL and 2.1 g/dL
GLUC (dog 4003 Male): 109 mg/dL and 81 mg/dL
K (dog 4003 Male): 4.9 mmo/L
Na (dog 4003 Male): 149 mmo/L and 147 mmo/L
TBIL (dog 4003 Male): 0.15 mg/dL
TP (dog 4003 Male): 5.4 g/dL
TRIG (dog 4003 Male): 55 mg/dL and 53 mg/dL
AGR (dog 4004 Female): 2.0 and 1.7 and 1.9
ALB (dog 4004 Female): 3.4 g/dL and 3.3 g/dL
ALPK (dog 4004 Female): 103 IU/L and 93 IU/L and 95 IU/L
ALT (dog 4004 Female): 28 IU/L and 25 IU/L and 24 IU/L
AST (dog 4004 Female): 33 IU/L and 38 IU/L and 31 IU/L
BUN (dog 4004 Female): 13 mg/dL
CA2 (dog 4004 Female): 10.8 mg/dL and 10.6 mg/dL
CHOL (dog 4004 Female): 125 mg/dL and 124 mg/dL and 112 mg/dL
CREA (dog 4004 Female): 0.6 mg/dL
Cl (dog 4004 Female): 119 mmo/L and 115 mmo/L and 114 mmo/L
GGT (dog 4004 Female): 3 IU/L
GLOB (dog 4004 Female): 1.7 g/dL and 1.9 g/dL
GLUC (dog 4004 Female): 102 mg/dL and 70 mg/dL and 96 mg/dL
K (dog 4004 Female): 4.6 mmo/L and 5.1 mmo/L and 4.3 mmo/L
Na (dog 4004 Female): 153 mmo/L and 148 mmo/L and 146 mmo/L
TBIL (dog 4004 Female): 0.15 mg/dL
TP (dog 4004 Female): 5.1 g/dL and 5.2 g/dL and 5.0 g/dL
TRIG (dog 4004 Female): 53 mg/dL and 49 mg/dL and 44 mg/dL
AGR (dogs, Grp 2 Avg): 1.8 and 2.2 and 2.1
ALB (dogs, Grp 2 Avg): 3.3 g/dL and 3.5 g/dL and 3.6 g/dL
ALPK (dogs, Grp 2 Avg): 186 IU/L and 126 IU/L and 116 IU/L
ALT (dogs, Grp 2 Avg): 20 IU/L and 26 IU/L and 25 IU/L
AST (dogs, Grp 2 Avg): 42 IU/L and 39 IU/L and 37 IU/L
BUN (dogs, Grp 2 Avg): 13 mg/dL and 15 mg/dL
CA2 (dogs, Grp 2 Avg): 10.9 mg/dL and 10.8 mg/dL
CHOL (dogs, Grp 2 Avg): 153 mg/dL and 145 mg/dL and 133 mg/dL
CREA (dogs, Grp 2 Avg): 0.7 mg/dL and 0.6 mg/dL
Cl (dogs, Grp 2 Avg): 110 mmo/L and 114 mmo/L and 111 mmo/L
GGT (dogs, Grp 2 Avg): 3 IU/L
GLOB (dogs, Grp 2 Avg): 1.8 g/dL and 1.7 g/dL
GLUC (dogs, Grp 2 Avg): 93 mg/dL and 98 mg/dL and 96 mg/dL
K (dogs, Grp 2 Avg): 4.8 mmo/L and 5.1 mmo/L and 4.7 mmo/L
Na (dogs, Grp 2 Avg): 149 mmo/L and 147 mmo/L and 148 mmo/L
TBIL (dogs, Grp 2 Avg): 0.15 mg/dL
TP (dogs, Grp 2 Avg): 5.1 g/dL and 5.2 g/dL and 5.4 g/dL
TRIG (dogs, Grp 2 Avg): 52 mg/dL and 60 mg/dL and 47 mg/dL
AGR (dogs, Grp 3 Avg): 2.2 and 1.9 and 2.4
ALB (dogs, Grp 3 Avg): 3.4 g/dL and 3.5 g/dL and 3.6 g/dL
ALPK (dogs, Grp 3 Avg): 153 IU/L and 113 IU/L and 149 IU/L
ALT (dogs, Grp 3 Avg): 27 IU/L and 22 IU/L and 21 IU/L
AST (dogs, Grp 3 Avg): 30 IU/L and 32 IU/L
CA2 (dogs, Grp 3 Avg): 11.0 mg/dL and 10.7 mg/dL and 10.2 mg/dL
CHOL (dogs, Grp 3 Avg): 113 mg/dL and 143 mg/dL and 126 mg/dL
CREA (dogs, Grp 3 Avg): 0.6 mg/dL and 1.0 mg/dL
Cl (dogs, Grp 3 Avg): 112 mmo/L and 110 mmo/L
GGT (dogs, Grp 3 Avg): 3 IU/L
GLOB (dogs, Grp 3 Avg): 1.6 g/dL and 1.9 g/dL and 1.5 g/dL
GLUC (dogs, Grp 3 Avg): 106 mg/dL and 89 mg/dL and 58 mg/dL
K (dogs, Grp 3 Avg): 5.1 mmo/L and 5.2 mmo/L and 5.9 mmo/L
Na (dogs, Grp 3 Avg): 148 mmo/L and 146 mmo/L and 149 mmo/L
TBIL (dogs, Grp 3 Avg): 0.15 mg/dL
TP (dogs, Grp 3 Avg): 4.9 g/dL and 5.3 g/dL and 5.1 g/dL
TRIG (dogs, Grp 3 Avg): 30 mg/dL and 39 mg/dL and 55 mg/dL
AGR (dogs, Grp 4 Avg): 2.2 and 1.8 and 1.9
ALB (dogs, Grp 4 Avg): 3.5 g/dL and 3.4 g/dL and 3.3 g/dL
ALPK (dogs, Grp 4 Avg): 103 IU/L and 104 IU/L and 107 IU/L
ALT (dogs, Grp 4 Avg): 28 IU/L and 26 IU/L
AST (dogs, Grp 4 Avg): 33 IU/L and 39 IU/L
BUN (dogs, Grp 4 Avg): 12 mg/dL and 13 mg/dL
CA2 (dogs, Grp 4 Avg): 10.8 mg/dL and 10.7 mg/dL and 10.5 mg/dL
CHOL (dogs, Grp 4 Avg): 139 mg/dL and 136 mg/dL and 112 mg/dL
CREA (dogs, Grp 4 Avg): 0.7 mg/dL and 0.6 mg/dL
Cl (dogs, Grp 4 Avg): 120 mmo/L and 116 mmo/L and 114 mmo/L
GGT (dogs, Grp 4 Avg): 3 IU/L
GLOB (dogs, Grp 4 Avg): 1.7 g/dL and 1.9 g/dL
GLUC (dogs, Grp 4 Avg): 102 mg/dL and 76 mg/dL and 91 mg/dL
K (dogs, Grp 4 Avg): 4.7 mmo/L and 5.0 mmo/L and 4.5 mmo/L
Na (dogs, Grp 4 Avg): 153 mmo/L and 148 mmo/L and 146 mmo/L
TBIL (dogs, Grp 4 Avg): 0.15 mg/dL
TP (dogs, Grp 4 Avg): 5.2 g/dL and 5.3 g/dL and 5.0 g/dL
TRIG (dogs, Grp 4 Avg): 51 mg/dL and 48 mg/dL and 42 mg/dL
